Key:
[1] = Crystal
[2] = Molar enthalpy of transition or fusion; conditions: Crystal
[3] = molar heat capacity at constant pressure; conditions: 101.33 kPa

CN(C)c1ccncc1 [4-(dimethylamino)pyridine]
Conditions | Molar enthalpy of transition or fusion, Adiabatic calorimetry [kcal/mol] | Molar enthalpy of transition or fusion, DSC [kcal/mol] | Normal melting temperature, Adiabatic calorimetry [°C] | Normal melting temperature, DTA [°C]
[1] | – | – | 113.94 | 114.0
[2] | 5.17 | 5.17 | – | –

[3], Crystal
Conditions | molar heat capacity at constant pressure [J/K/mol]
80.03 K | 64.47
83.52 K | 66.81
86.44 K | 69.05
89.41 K | 71.03
92.44 K | 72.95
95.51 K | 74.9
98.51 K | 76.86
101.43 K | 78.68
104.42 K | 80.51
107.48 K | 82.3
110.47 K | 83.92
113.41 K | 85.67
116.41 K | 87.31
119.47 K | 89.01
122.49 K | 90.57
125.46 K | 92.11
128.49 K | 93.69
131.59 K | 95.38
134.65 K | 96.78
137.66 K | 98.3
140.65 K | 99.76
143.69 K | 101.22
146.8 K | 102.9
149.88 K | 104.47
152.93 K | 105.97
155.94 K | 107.42
158.93 K | 108.62
161.98 K | 109.91
165.1 K | 111.54
168.19 K | 113.06
171.25 K | 114.49
174.28 K | 115.97
177.29 K | 117.2
180.27 K | 118.57
183.32 K | 120.19
186.44 K | 121.88
189.53 K | 123.23
192.6 K | 124.43
195.65 K | 125.95
198.67 K | 127.3
201.68 K | 128.65
204.66 K | 130
207.72 K | 131.46
210.84 K | 133.09
213.94 K | 134.61
217.02 K | 135.82
220.08 K | 139.06
223.12 K | 141.26
226.12 K | 143.32
229.09 K | 145.3
232.06 K | 146.84
235.11 K | 149.01
238.15 K | 150.96
241.18 K | 152.05
244.19 K | 153.79
247.18 K | 155.15
250.16 K | 156.56
253.13 K | 157.38
256.16 K | 158.57
259.24 K | 159.8
262.29 K | 161.74
265.4 K | 163.21
268.51 K | 165.52
271.55 K | 167.5
274.51 K | 168.7
277.42 K | 169.84
280.39 K | 171.69
283.34 K | 173.55
286.27 K | 175.43
289.25 K | 177.99
292.28 K | 179.13
295.28 K | 180.15
298.29 K | 181.32
301.34 K | 183.53
304.44 K | 184.83
307.47 K | 185.41
310.42 K | 187.12
313.4 K | 188.44
316.42 K | 189.79
319.4 K | 191.08
322.4 K | 192.54
325.41 K | 193.75
328.42 K | 194.7
331.5 K | 195.13
334.53 K | 196.95
337.56 K | 198.33
340.67 K | 200.84
342.97 K | 199.88
343.66 K | 201.99
343.86 K | 200.32
345.56 K | 201.09
346.45 K | 202.23
346.7 K | 203.24
348.77 K | 203.52
349.62 K | 204.76
349.67 K | 205.23
351.86 K | 205.79
352.63 K | 206.7
352.69 K | 207.19
354.94 K | 207.38
355.72 K | 208.46
355.82 K | 209.44
358.07 K | 209.19
358.46 K | 210.78
359.14 K | 211.21
361.26 K | 211.54
361.64 K | 213.95
362.4 K | 212.78
364.46 K | 214.96
364.97 K | 216.45
365.52 K | 215.57
367.64 K | 216.47
368.27 K | 219.21
368.63 K | 217.48
370.81 K | 219.17
371.06 K | 221.32
371.59 K | 220.81
373.98 K | 222.94
374.28 K | 223.05
374.54 K | 223.68
377.12 K | 225.02
377.36 K | 225
377.66 K | 225.68
380.18 K | 228.35
380.23 K | 226.87
380.77 K | 227.73
383.33 K | 231.81

[3], Liquid, Small (less than 1 g) adiabatic calorimetry
Conditions | molar heat capacity at constant pressure [J/K/mol]
388.4 K | 231.37
389.73 K | 233.89
389.99 K | 232.72
390.88 K | 233.99
392.95 K | 234.74
393.17 K | 234.28
393.33 K | 235.41
395.77 K | 236.28
396.07 K | 235.35
396.35 K | 235.97
398.22 K | 237.66
399.18 K | 236.11
399.52 K | 236.69
402.29 K | 237.05
402.68 K | 237.16

Source: the NIST ThermoML archive (doi:10.1021/je6005423)
